We go through five compounds from paper PMC10535741, “Styrylpyridinium Derivatives for Fluorescent Cell Imaging” (Pharmaceuticals, 2023).

Data set [1] is described as follows: in vitro. Format: cell-based, rat. The note with it: rat. From the text: (§1) For selected compounds, 6a–6f, we performed a determination of the cytotoxicity in a wider variety of cancer and non-cancerous cell lines (see Table S2, Supplementary Materials) in order to learn the characteristic features of selectivity or the similarity of biological properties.
(§2) The HT-1080 (human connective tissue fibrosarcoma, ATCC® CCL-121™), MH-22A (mouse hepatocarcinoma, ECACC Cat. No. 96121721), A-549 (human lung carcinoma, ATCC® CCL-185™), NIH3T3 (Swiss Albino mouse embryo fibroblast, ECACC Cat. No. 93061524), Hek293 (human embryonic kidney, ATCC® CRL-1573™), BHK-21 (Syrian hamster kidney, ATCC® CCL-10™), A-431 (human epidermoid carcinoma, ATCC® CRL-1555™), Saos-2 (human osteosarcoma, ATCC® HTB-85™), HeLa (human epitheloid cervix carcinoma, ATCC® CCL-2™), U937 (human myeloid leukaemia, ATCC® CRL-1593.2™), C6 (rat glioma, ATCC® CCL-107™), and B16-F10 (murine melanoma, ATCC® CRL-6475™) cell lines were obtained from the American Type Culture Collection (ATCC) and European Collection of Authenticated Cell Cultures (ECACC).
HT-1080, MH-22A, A-549, NIH3T3, BHK-21, A-431, HeLa, and B16-F10 cells were cultured in Dulbecco’s Modified Eagle’s Medium (DMEM) with 2 mM glutamine and 10% foetal bovine serum (FBS). Hek293 cells were cultured in Eagle’s Minimum Essential Medium with 10% foetal bovine serum. U937 cells were cultured in RPMI-1640 Medium with 2 mM glutamine and 10% foetal bovine serum. C6 cells were cultured in Ham’s F12 Medium with 2 mM glutamine and 10% foetal bovine serum. Saos-2 cells were cultured in McCoy’s 5a Medium with 2 mM glutamine and 10% foetal bovine serum. The cells were incubated at 37 °C with 5% CO2, 95% air, and complete humidity. Once ~90% confluence was reached, they were detached using 0.05% trypsin/EDTA and counted. The cells were plated at optimally determined densities for the logarithmic phase of growth. These cells were then suspended at a concentration of 4000 cells/well for HT-1080, MH-22A, A-549, NIH3T3, BHK-21, A-431, HeLa, B16-F10, Hek293, and Saos-2 cells and a concentration of 9000 cells/well for U937, C6, Hek293, and GM08402 cells and added onto a 96-well plate. For background absorption, some wells remained cell free, i.e., as a blank control. Cells were incubated for 72 h at 37 °C and 5% CO2 where they were exposed to a media containing serial dilutions of the investigated compounds (n = 3). Cell viability was measured using the 3-(4,5-dimethylthiazol-2-yl)-2,5-diphenyl-tetrazolium bromide (MTT) assay. In brief, after incubating with compounds, the culture medium was removed and fresh medium with 0.2 mg/mL MTT was added to each well of the plate. After incubation (3 h, 37 °C, 5% CO2), the medium with MTT solution was removed and replaced with 200 µL DMSO and 25 µL Sorenson’s glycine buffer (glycine 0.1 M, NaCl 0.1 M, pH: 10.5 with 0.1 M NaOH). The plate was shaken for 15 min at room temperature and the optical density (OD) of the wells was determined using a multichannel spectrophotometer (Thermo Scientific Multiskan EX) at 540 nm. The quantity of the control cells was taken in calculations as 100%. The IC50 value was calculated using the program Graph Pad Prism® 3.0. […]

Data set [2] is described as follows: in vitro. The note with it: mouse. Format: cell-based, mouse.
Text: as §1, §2
(§3) HT-1080, MH-22A, A-549, NIH3T3, BHK-21, A-431, HeLa, and B16-F10 cells were cultured in Dulbecco’s Modified Eagle’s Medium (DMEM) with 2 mM glutamine and 10% foetal bovine serum (FBS). Hek293 cells were cultured in Eagle’s Minimum Essential Medium with 10% foetal bovine serum. U937 cells were cultured in RPMI-1640 Medium with 2 mM glutamine and 10% foetal bovine serum. C6 cells were cultured in Ham’s F12 Medium with 2 mM glutamine and 10% foetal bovine serum. Saos-2 cells were cultured in McCoy’s 5a Medium with 2 mM glutamine and 10% foetal bovine serum. The cells were incubated at 37 °C with 5% CO2, 95% air, and complete humidity. Once ~90% confluence was reached, they were detached using 0.05% trypsin/EDTA and counted. The cells were plated at optimally determined densities for the logarithmic phase of growth. These cells were then suspended at a concentration of 4000 cells/well for HT-1080, MH-22A, A-549, NIH3T3, BHK-21, A-431, HeLa, B16-F10, Hek293, and Saos-2 cells and a concentration of 9000 cells/well for U937, C6, Hek293, and GM08402 cells and added onto a 96-well plate. For background absorption, some wells remained cell free, i.e., as a blank control. Cells were incubated for 72 h at 37 °C and 5% CO2 where they were exposed to a media containing serial dilutions of the investigated compounds (n = 3). Cell viability was measured using the 3-(4,5-dimethylthiazol-2-yl)-2,5-diphenyl-tetrazolium bromide (MTT) assay. In brief, after incubating with compounds, the culture medium was removed and fresh medium with 0.2 mg/mL MTT was added to each well of the plate. After incubation (3 h, 37 °C, 5% CO2), the medium with MTT solution was removed and replaced with 200 µL DMSO and 25 µL Sorenson’s glycine buffer (glycine 0.1 M, NaCl 0.1 M, pH: 10.5 with 0.1 M NaOH). The plate was shaken for 15 min at room temperature and the optical density (OD) of the wells was determined using a multichannel spectrophotometer (Thermo Scientific Multiskan EX) at 540 nm. The quantity of the control cells was taken in calculations as 100%. The IC50 value was calculated using the program Graph Pad Prism® 3.0.
(§4) The HT-1080 (human connective tissue fibrosarcoma, ATCC® CCL-121™), MH-22A (mouse hepatocarcinoma, ECACC Cat.No. 96121721), A-549 (human lung carcinoma, ATCC® CCL-185™), NIH 3T3 (mouse Swiss Albino embryo fibroblast, ECACC Cat.No. 93061524), Hek293 (human embryonic kidney, ATCC® CRL-1573™), BHK-21 (hamster Syrian kidney, ATCC® CCL-10™), A-431 (human epidermoid carcinoma, ATCC® CRL-1555™), Saos-2 (human oste osarcoma, ATCC® HTB-85™) HeLa (human epitheloid cervix carcinoma, ATCC® CCL-2™), U937 (human myeloid leukaemia, ATCC® CRL-1593.2™), C6 (rat glioma, ATCC® CCL-107™), B16-F10 (murine melanoma, ATCC® CRL-6475™) cell lines were obtained from American Type Culture Collection (ATCC) and European Collection of Authenticated Cell Cultures […]
(§5) Table S2. […]

The nature of data set [3]: in vitro. The format is cell-based, human. The note with it: human, MTT, 72 h.
Text: as §1, §2, §3, §4, §5

A short description of data set [4]: MTT cytotoxicity assay, BHK-21. Format: cell-based, Syrian hamster. The note with it: Syrian hamster.
Text: as §1, §2, §3, §4, §5
For orientation: Tetrazolium assays rely on reduction of a dye to a coloured formazan, in cell work by metabolically active cells.

A short description of data set [5]: UV/Vis absorption spectra in DMSO. Format: physicochemical. The note with it: 0.33 mM for 6a,b,d,f,g, 5 mM for 6c,e. The method, then: The resonance structures of compounds 6d,e (Figure 2a) show a possibly intramolecular charge transfer between the julolidine moiety and the pyridinium unit. The normalised fluorescence spectra of the tested compounds 6a–e and 7a,b in DMSO solution (Figure 2c) and the fluorescence spectra of compound 6e in various media (Figure 2d) were measured using a spectrophotometer multiplate reader (Infinite M1000). The UV/Vis spectra in DMSO solution of compounds 6a–g (Figure 2b) were reordered with a UV/Vis spectrophotometer, and the fluorescence spectra of compound 6e in EtOH–glycerol mixtures (Figure 2e) were collected with a Spectrofluorometer FS5.
The spectral properties (absorption and fluorescence maximum in DMSO solution) of compounds 6a–e and 7a,b, UV spectral data (extinction coefficient (log ε) and absorption maximum), values of Stokes’ shift, and fluorescence quantum yield are presented in Table 3.

[6] abbreviates: cancer cell line, MTT, 72 h, read-out: Cytotoxicity IC50 C6.
Where [7] appears, read: non-cancerous cell line, MTT, 72 h, read-out: Cytotoxicity IC50 NIH3T3.
[8] abbreviates: cancer cell line, read-out: Cytotoxicity IC50 A-431.
Setting [9] is: cancer cell line, read-out: Cytotoxicity IC50 A-549.
Setting [10] is: cancer cell line, read-out: Cytotoxicity IC50 HeLa.
Setting [11] is: cancer cell line, read-out: Cytotoxicity IC50 Saos-2.
[12] abbreviates: cancer cell line, read-out: Cytotoxicity IC50 U937.
Where [13] appears, read: non-cancerous cell line, read-out: Cytotoxicity IC50 Hek-293.

A word on the IC50: it is the concentration that inhibits the measured activity by half. With `CCCCCCCCCCCC[n+]1ccc(C=Cc2cc3c4c(c2)CCCN4CCC3)cc1.[Br-]` [Compound 6d, 1-dodecyl-4-(2-(2,3,6,7-tetrahydro-1H,5H-pyrido[3,2,1-ij]quinolin-9-yl)vinyl)pyridin-1-ium bromide], the IC50 at 72 h is 0.129 µg/mL in “in vitro [1]” (setting [6]); 0.056 µg/mL in the data set “in vitro [2]” (setting [7]); 0.098 µg/mL in “in vitro [3]” (setting [8]); 0.055 µg/mL in the data set “in vitro [3]” (setting [9]); 0.055 µg/mL in the data set “in vitro [3]” (setting [10]); 0.79 µg/mL in the data set “in vitro [3]” (setting [11]). Further, the figures for the IC50 at 72 h (in “in vitro [3]” (setting [12]); in “in vitro [3]” (setting [13]); in data set [4]) were 0.044 µg/mL, 0.012 µg/mL and 0.082 µg/mL, respectively.
As to `CCCCCCCCCCCCCCCC[n+]1ccc(C=Cc2cc(OC)c(OC)c(OC)c2)cc1.[Br-]` [Compound 6b], in data set [5], the “abs. max., λ, nm” value worked out at 385 nm and the “log ε” value came out at 5.23.
Turning to `CCCCCCCCCCCC[n+]1ccc(C=Cc2cc(OC)c(OC)c(OC)c2)cc1.[Br-]` [Compound 6a, 4-(3,4,5-trimethoxystyryl)-N-dodecylpyridinium bromide], the “abs. max., λ, nm” value in data set [5] amounted to 384 nm. Also, in data set [5], the “log ε” value was found to be 5.46. Also, the IC50 at 72 h in the data set “in vitro [1]” (setting [6]) was 0.86 µg/mL; in “in vitro [2]” (setting [7]), 1.23 µg/mL; in “in vitro [3]” (setting [8]), 0.87 µg/mL; in the data set “in vitro [3]” (setting [9]), 0.87 µg/mL; in the data set “in vitro [3]” (setting [10]), 0.59 µg/mL; in the data set “in vitro [3]” (setting [11]) it was 0.37 µg/mL. Also, the IC50 at 72 h stood at 1.01 µg/mL in “in vitro [3]” (setting [12]); 0.22 µg/mL in the data set “in vitro [3]” (setting [13]); 1.01 µg/mL in data set [4] (non-cancerous cell line, MTT, 72 h, read-out: Cytotoxicity IC50 BHK-21).
As to `CCCCCCCCCCCCCCCC[n+]1ccc(C=CC=Cc2cc3c4c(c2)CCCN4CCC3)cc1.[Br-]` [Compound 6e, 1-hexadecyl-4-(4-(2,3,6,7-tetrahydro-1H,5H-pyrido[3,2,1-ij]quinolin-9-yl)buta-1,3-dien-1-yl)pyridin-1-ium bromide], the “abs. max., λ, nm” value in data set [5] turned out to be 520 nm. For the same compound, the “log ε” value in data set [5] came to 4.02. Besides, the IC50 at 72 h in the data set “in vitro [1]” (setting [6]) amounted to 3.4 µg/mL; in the data set “in vitro [2]” (setting [7]), 3.2 µg/mL; in the data set “in vitro [3]” (setting [8]) it was 1.9 µg/mL; in “in vitro [3]” (setting [9]), 3 µg/mL; in “in vitro [3]” (setting [10]), 1.3 µg/mL; in “in vitro [3]” (setting [11]), 3.6 µg/mL. Also, the IC50 at 72 h in the data set “in vitro [3]” (setting [12]) is 2.4 µg/mL; in the data set “in vitro [3]” (setting [13]), 1.5 µg/mL; in data set [4], 2.7 µg/mL.
With `CCCCCCCCCCCCCCCC[n+]1ccc(C=CC=Cc2ccc(OC)cc2)cc1.[Br-]` [Compound 6c, 1-hexadecyl-4-(4-(4-methoxyphenyl)buta-1,3-dien-1-yl)pyridin-1-ium bromide], the “abs. max., λ, nm” value in data set [5] came to 408 nm. Also, the “log ε” value in data set [5] stood at 4.26. Also, the IC50 at 72 h in the data set “in vitro [1]” came to 0.6 µg/mL; in “in vitro [2]”, 0.24 µg/mL; in data set [4], 0.35 µg/mL.
